Patent US6525001B1, “Substituted pyrimidine and pyridine herbicides” (Mid-American Commercialization Corporation, priority 1997, dated 2003)

What was measured:
Format in all cases: in vivo
Parameters in all cases: key: 0 is no effect; 10 is complete control
[1] = test system: duck salad (Heteranthera limosa); test: Test B flood test; conditions: for Plant response rating, Ducksalad: Postemergence (flood test species)
How it was run: (§1)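 Flood test on plants grown to the 2-leaf stage; treated plants kept in greenhouse twelve to sixteen days, then visually rated against controls on a 0 (no effect) to 10 (complete control) scale.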

[2] = test system: bamyardgrass (Echinochloa crus-galli); test: Test B flood test; conditions: for Plant response rating, Barnyardgrass: Postemergence (flood test species)
How it was run: as §1

[3] = test system: smallflower flatsedge (Cyperus difformis); test: Test B flood test; conditions: for Plant response rating, S. Flatsedge: Postemergence (flood test species)
How it was run: as §1

[4] = test system: rice (Oryza sativa); test: Test B flood test; conditions: for Plant response rating, Rice: Postemergence (flood test species)
How it was run: as §1

[5] = test system: soybean (Glycine max); test: Test B pre-/postemergence
How it was run: (§2)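 Scored visually 0 (none) to 10 (complete control) against untreated plants after twelve to sixteen greenhouse days. Test chemicals, formulated in surfactant-containing non-phytotoxic solvent, applied to soil after planting and, separately, onto 1- to 4-leaf (2–18 cm) plants.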

[6] = test system: rape (Brassica napus); test: Test B pre-/postemergence
How it was run: as §2

[7] = Rate 62 g/ha, Postemergence (flood test)
[8] = Rate 125 g/ha, Postemergence section (flood test species)
[9] = Preemergence, Rate 62 g/ha, scale of 0 to 10

SMILES	Ducksalad plant response rating [1, 7]	Ducksalad plant response rating [1, 8]	Plant response rating, Ducksalad ([1]; Rate 250 g/ha)	Plant response rating, Ducksalad ([1]; Rate 500 g/ha)	Barnyardgrass plant response rating [2, 7]	Barnyardgrass plant response rating [2, 8]	Plant response rating, Barnyardgrass ([2]; Rate 250 g/ha)	Plant response rating, Barnyardgrass ([2]; Rate 500 g/ha)	S. Flatsedge plant response rating [3, 7]	S. Flatsedge plant response rating [3, 8]	Plant response rating, S. Flatsedge ([3]; Rate 250 g/ha)	Plant response rating, S. Flatsedge ([3]; Rate 500 g/ha)	Rice plant response rating [4, 7]	Rice plant response rating [4, 8]	Plant response rating, Rice ([4]; Rate 250 g/ha)	Plant response rating, Rice ([4]; Rate 500 g/ha)	Plant response rating, Soybean [5, 9]	Soybean plant response rating ([5]; Rate 62 g/ha, Postemergence)	Soybean plant response rating ([5]; Rate 125 g/ha, Postemergence)	Plant response rating, Soybean ([5]; Rate 125 g/ha, Preemergence)	further results
Cc1cnc(-n2cnc(C(F)(F)F)c2)nc1C(=O)c1cccc(OC(F)(F)F)c1 [Compound 63]	0	0	2	6	1	3	3	3	4	7	8	9	0	0	1	1	0	0	2	0	Plant response rating, Soybean ([5]; Rate 250 g/ha, Postemergence): 2; Plant response rating, Soybean ([5]; Rate 250 g/ha, Preemergence): 0; Plant response rating, Soybean ([5]; Rate 500 g/ha, Postemergence): 2; Plant response rating, Soybean ([5]; Rate 500 g/ha, Preemergence): 0; Plant response rating, Rape [6, 9]: 3; Rape plant response rating ([6]; Rate 62 g/ha, Postemergence): 3; Rape plant response rating ([6]; Rate 125 g/ha, Postemergence): 4; Plant response rating, Rape ([6]; Rate 125 g/ha, Preemergence): 3; Plant response rating, Rape ([6]; Rate 250 g/ha, Postemergence): 8; Plant response rating, Rape ([6]; Rate 250 g/ha, Preemergence): 4; Plant response rating, Rape ([6]; Rate 500 g/ha, Postemergence): 8; Plant response rating, Rape ([6]; Rate 500 g/ha, Preemergence): 8
Cc1cnc(-n2cnc(C(F)(F)F)n2)nc1C(=O)c1cccc(OC(F)(F)F)c1 [Compound 64]	4	6	6	9	2	3	4	5	8	8	8	9	1	1	2	3	0	2	3	1	Plant response rating, Soybean ([5]; Rate 250 g/ha, Postemergence): 5; Plant response rating, Soybean ([5]; Rate 250 g/ha, Preemergence): 1; Plant response rating, Soybean ([5]; Rate 500 g/ha, Postemergence): 6; Plant response rating, Soybean ([5]; Rate 500 g/ha, Preemergence): 1; Plant response rating, Rape [6, 9]: 3; Rape plant response rating ([6]; Rate 62 g/ha, Postemergence): 3; Rape plant response rating ([6]; Rate 125 g/ha, Postemergence): 4; Plant response rating, Rape ([6]; Rate 125 g/ha, Preemergence): 4; Plant response rating, Rape ([6]; Rate 250 g/ha, Postemergence): 4; Plant response rating, Rape ([6]; Rate 250 g/ha, Preemergence): 8; Plant response rating, Rape ([6]; Rate 500 g/ha, Postemergence): 4; Plant response rating, Rape ([6]; Rate 500 g/ha, Preemergence): 10
Cc1cnc(-n2cnc(C(F)(F)F)n2)nc1C(=O)c1cccc(C(F)(F)F)c1 [Compound 67]	3	4	6	8	3	3	5	6	5	8	9	9	1	2	2	4	1	7	7	2	Plant response rating, Soybean ([5]; Rate 250 g/ha, Postemergence): 8; Plant response rating, Soybean ([5]; Rate 250 g/ha, Preemergence): 3; Plant response rating, Soybean ([5]; Rate 500 g/ha, Postemergence): 8; Plant response rating, Soybean ([5]; Rate 500 g/ha, Preemergence): 8; Plant response rating, Rape [6, 9]: 7; Rape plant response rating ([6]; Rate 62 g/ha, Postemergence): 6; Rape plant response rating ([6]; Rate 125 g/ha, Postemergence): 8; Plant response rating, Rape ([6]; Rate 125 g/ha, Preemergence): 9; Plant response rating, Rape ([6]; Rate 250 g/ha, Postemergence): 8; Plant response rating, Rape ([6]; Rate 250 g/ha, Preemergence): 10; Plant response rating, Rape ([6]; Rate 500 g/ha, Postemergence): 9; Plant response rating, Rape ([6]; Rate 500 g/ha, Preemergence): 10
Cc1cnc(-n2ccc(C(F)(F)C(F)(F)F)n2)nc1C(=O)c1cccc(C(F)(F)F)c1 [Compound 68]	0	1	2	3	2	3	4	4	5	7	7	7	0	1	3	3	0	3	5	1	Plant response rating, Soybean ([5]; Rate 250 g/ha, Postemergence): 7; Plant response rating, Soybean ([5]; Rate 250 g/ha, Preemergence): 2; Plant response rating, Soybean ([5]; Rate 500 g/ha, Postemergence): 7; Plant response rating, Soybean ([5]; Rate 500 g/ha, Preemergence): 2; Plant response rating, Rape [6, 9]: 2; Rape plant response rating ([6]; Rate 62 g/ha, Postemergence): 6; Rape plant response rating ([6]; Rate 125 g/ha, Postemergence): 6; Plant response rating, Rape ([6]; Rate 125 g/ha, Preemergence): 3; Plant response rating, Rape ([6]; Rate 250 g/ha, Preemergence): 4; Plant response rating, Rape ([6]; Rate 500 g/ha, Postemergence): 7; Plant response rating, Rape ([6]; Rate 500 g/ha, Preemergence): 8
